Target: T1, SYK kinase (Homo sapiens, UniProt P43405)
T1 construct: purchased Invitrogen, Carlsbad
Test: SYK assay (OMNIA Kinase Assay, Invitrogen)
Format: biochemical
Conditions: SYK Activities; 1 mM ATP, 10 μM Omnia Peptide Substrate Tyr 7, 30° C.
In short: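 SYK was added last to start phosphorylation of a chelation-enhanced SOX peptide substrate (10 μM) in the presence of 1 mM ATP and 0.2 mM DTT at 30° C. Kinetic readings at λex 360/λem 485 nm over 30 min gave velocities, fitted sigmoidally against compound concentration to give IC50.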

SMILES	IC50 [nM]
COc1ccc(Nc2nc(C3CCOC3)nc3cn[nH]c23)cc1OC (stereo not shown) [Example 80, N-(3,4-dimethoxyphenyl)-5-(tetrahydrofuran-3-yl)-1H-pyrazolo[4,3-d]pyrimidin-7-amine]	100 to 1000
c1nc(-c2nc(Nc3ccc(N4CCOCC4)cc3)c3[nH]ncc3n2)co1 [Example 48, N-(4-morpholinophenyl)-5-(oxazol-4-yl)-1H-pyrazolo[4,3-d]pyrimidin-7-amine]	100 to 1000
O=C1CCCc2ccc(Nc3nc(-c4ccc5cn[nH]c5c4)nc4cn[nH]c34)cc2N1 [Example 516, 8-((5-(1H-indazol-6-yl)-1H-pyrazolo[4,3-d]pyrimidin-7-yl)amino)-4,5-dihydro-1H-benzo[b]azepin-2(3H)-one]	10 to 100
c1cc(-c2nc(Nc3cnn(C4CCOCC4)c3)c3[nH]ncc3n2)co1 [Example 110, 5-(furan-3-yl)-N-(1-(tetrahydro-2H-pyran-4-yl)-1H-pyrazol-4-yl)-1H-pyrazolo[4,3-d]pyrimidin-7-amine]	10 to 100
CC(C(=O)O)n1cc(Nc2nc(-c3ccc4cn[nH]c4c3)nc3cn[nH]c23)cn1 (stereo not shown) [Example 493, 2-(4-((5-(1H-indazol-6-yl)-1H-pyrazolo[4,3-d]pyrimidin-7-yl)amino)-1H-pyrazol-1-yl)propanoic acid]	100 to 1000
Cc1nn(C(C)C)cc1Nc1nc(-c2ccoc2)nc2cn[nH]c12 [Example 292, 5-(furan-3-yl)-N-(1-isopropyl-3-methyl-1H-pyrazol-4-yl)-1H-pyrazolo[4,3-d]pyrimidin-7-amine]	100 to 1000
COc1cccc(-c2nc(Nc3cnn(C4CC4)c3)c3[nH]ncc3n2)c1 [Example 406, N-(1-cyclopropyl-1H-pyrazol-4-yl)-5-(3-methoxyphenyl)-1H-pyrazolo[4,3-d]pyrimidin-7-amine]	100 to 1000
COCCCn1cc(Nc2nc(-c3ccoc3)nc3cn[nH]c23)cn1 [Example 221, 5-(furan-3-yl)-N-(1-(3-methoxypropyl)-1H-pyrazol-4-yl)-1H-pyrazolo[4,3-d]pyrimidin-7-amine]	< 10
CC(C)(C)n1cc(Nc2nc(-c3ccoc3)nc3cn[nH]c23)cn1 [Example 218, N-(1-(tert-butyl)-1H-pyrazol-4-yl)-5-(furan-3-yl)-1H-pyrazolo[4,3-d]pyrimidin-7-amine]	10 to 100
CC(=O)N1CCC(n2cc(Nc3nc(-c4cccc(S(N)(=O)=O)c4)nc4cn[nH]c34)cn2)CC1 [Example 427, 3-(7-((1-(1-acetylpiperidin-4-yl)-1H-pyrazol-4-yl)amino)-1H-pyrazolo[4,3-d]pyrimidin-5-yl)benzenesulfonamide]	100 to 1000
c1nn(C2CCOCC2)cc1Nc1nc(-c2ccc3cn[nH]c3c2)nc2cn[nH]c12 [Example 134, 5-(1H-indazol-6-yl)-N-(1-(tetrahydro-2H-pyran-4-yl)-1H-pyrazol-4-yl)-1H-pyrazolo[4,3-d]pyrimidin-7-amine]	< 10
CC1(c2nc(Nc3ccc(N4CCOCC4)cc3)c3[nH]ncc3n2)CC1 [Example 99, 5-(1-methylcyclopropyl)-N-(4-morpholinophenyl)-1H-pyrazolo[4,3-d]pyrimidin-7-amine]	100 to 1000
CC(=O)N1CCN(c2ccc(Nc3nc(C4CC4)nc4cn[nH]c34)cc2)CC1 [Example 33, 1-(4-(4-((5-cyclopropyl-1H-pyrazolo[4,3-d]pyrimidin-7-yl)amino)phenyl)piperazin-1-yl)ethan-1-one]	100 to 1000
O=C(c1ccc(Nc2nc(-c3ccco3)nc3cn[nH]c23)cc1F)N1CCOCC1 [Example 197, (2-fluoro-4-((5-(furan-2-yl)-1H-pyrazolo[4,3-d]pyrimidin-7-yl)amino)phenyl)(morpholino)methanone]	100 to 1000
COc1ccc(Nc2nc(-c3c(F)cccc3Cl)nc3cn[nH]c23)cc1OC [Example 513, 5-(2-chloro-6-fluorophenyl)-N-(3,4-dimethoxyphenyl)-1H-pyrazolo[4,3-d]pyrimidin-7-amine]	100 to 1000
c1cc(-c2nc(Nc3ccc(N4CCOCC4)cc3)c3[nH]ncc3n2)no1 [Example 74, 5-(isoxazol-3-yl)-N-(4-morpholinophenyl)-1H-pyrazolo[4,3-d]pyrimidin-7-amine]	100 to 1000
CS(=O)(=O)Nc1cccc(-c2nc(Nc3ccc4c(c3)NC(=O)CCC4)c3[nH]ncc3n2)c1 [Example 529, N-(3-(7-((2-oxo-2,3,4,5-tetrahydro-1H-benzo[b]azepin-8-yl)amino)-1H-pyrazolo[4,3-d]pyrimidin-5-yl)phenyl)methanesulfonamide]	100 to 1000
c1ccc(-n2cc(Nc3nc(-c4ccoc4)nc4cn[nH]c34)cn2)nc1 [Example 484, 5-(furan-3-yl)-N-(1-(pyridin-2-yl)-1H-pyrazol-4-yl)-1H-pyrazolo[4,3-d]pyrimidin-7-amine]	100 to 1000
N#CCn1cc(Nc2nc(-c3ccoc3)nc3cn[nH]c23)cn1 [Example 241, 2-(4-((5-(furan-3-yl)-1H-pyrazolo[4,3-d]pyrimidin-7-yl)amino)-1H-pyrazol-1-yl)acetonitrile]	< 10

SMILES	IC50 [nM]
CC(=O)N1CCC(n2cc(Nc3nc(C4CC4)nc4cn[nH]c34)cn2)CC1 [Example 204, 1-(4-(4-((5-cyclopropyl-1H-pyrazolo[4,3-d]pyrimidin-7-yl)amino)-1H-pyrazol-1-yl)piperidin-1-yl)ethan-1-one]	< 10
NS(=O)(=O)c1cccc(-c2nc(Nc3cnn(CCO)c3)c3[nH]ncc3n2)c1 [Example 526, 3-(7-((1-(2-hydroxyethyl)-1H-pyrazol-4-yl)amino)-1H-pyrazolo[4,3-d]pyrimidin-5-yl)benzenesulfonamide]	10 to 100
NS(=O)(=O)c1cccc(-c2nc(Nc3ccc4c(c3)NC(=O)CCC4)c3[nH]ncc3n2)c1 [Example 525, 3-(7-((2-oxo-2,3,4,5-tetrahydro-1H-benzo[b]azepin-8-yl)amino)-1H-pyrazolo[4,3-d]pyrimidin-5-yl)benzenesulfonamide]	10 to 100
CC(C)n1cc(Nc2nc(-c3cccc(NS(C)(=O)=O)c3)nc3cn[nH]c23)cn1 [Example 259, N-(3-(7-((1-isopropyl-1H-pyrazol-4-yl)amino)-1H-pyrazolo[4,3-d]pyrimidin-5-yl)phenyl)methanesulfonamide]	10 to 100
COCCn1cc(Nc2nc(-c3ccco3)nc3cn[nH]c23)cn1 [Example 195, 5-(furan-2-yl)-N-(1-(2-methoxyethyl)-1H-pyrazol-4-yl)-1H-pyrazolo[4,3-d]pyrimidin-7-amine]	10 to 100
COCCn1cc(Nc2nc(C3CCC3)nc3cn[nH]c23)cn1 [Example 191, 5-cyclobutyl-N-(1-(2-methoxyethyl)-1H-pyrazol-4-yl)-1H-pyrazolo[4,3-d]pyrimidin-7-amine]	10 to 100
c1cc(-c2nc(Nc3ccc(N4CCOCC4)cc3)c3[nH]ncc3n2)co1 [Example 94, 5-(furan-3-yl)-N-(4-morpholinophenyl)-1H-pyrazolo[4,3-d]pyrimidin-7-amine]	10 to 100
CC(C)c1nc(Nc2cnn(C3CCOCC3)c2)c2[nH]ncc2n1 [Example 182, 5-isopropyl-N-(1-(tetrahydro-2H-pyran-4-yl)-1H-pyrazol-4-yl)-1H-pyrazolo[4,3-d]pyrimidin-7-amine]	100 to 1000
COc1ccc(Nc2nc(-c3cnn(C(C)C(C)C)c3)nc3cn[nH]c23)cc1OC (stereo not shown) [Example 511, N-(3,4-dimethoxyphenyl)-5-(1-(3-methylbutan-2-yl)-1H-pyrazol-4-yl)-1H-pyrazolo[4,3-d]pyrimidin-7-amine]	100 to 1000
COCCn1ccc(Nc2nc(C3CC3)nc3cn[nH]c23)cc1=O [Example 231, 4-((5-cyclopropyl-1H-pyrazolo[4,3-d]pyrimidin-7-yl)amino)-1-(2-methoxyethyl)pyridin-2(1H)-one]	100 to 1000
CC(=O)N1CCC(n2cc(Nc3nc(-c4cnn(C)c4)nc4cn[nH]c34)cn2)CC1 [Example 189, 1-(4-(4-((5-(1-methyl-1H-pyrazol-4-yl)-1H-pyrazolo[4,3-d]pyrimidin-7-yl)amino)-1H-pyrazol-1-yl)piperidin-1-yl)ethan-1-one]	< 10
c1coc(-c2nc(Nc3cnn(C4CCOCC4)c3)c3[nH]ncc3n2)n1 [Example 254, 5-(oxazol-2-yl)-N-(1-(tetrahydro-2H-pyran-4-yl)-1H-pyrazol-4-yl)-1H-pyrazolo[4,3-d]pyrimidin-7-amine]	100 to 1000
CC(C)(C)N1CCC(n2cc(Nc3nc(-c4ccc5cn[nH]c5c4)nc4cn[nH]c34)cn2)CC1 [Example 468, N-(1-(1-(tert-butyl)piperidin-4-yl)-1H-pyrazol-4-yl)-5-(1H-indazol-6-yl)-1H-pyrazolo[4,3-d]pyrimidin-7-amine]	< 10
CC(C)(C)N1CCC(n2cc(Nc3nc(-c4ccoc4)nc4cn[nH]c34)cn2)CC1 [Example 291, N-(1-(1-(tert-butyl)piperidin-4-yl)-1H-pyrazol-4-yl)-5-(furan-3-yl)-1H-pyrazolo[4,3-d]pyrimidin-7-amine]	< 10
CC(=O)N1CCN(c2ccc(Nc3nc(-c4cnn(C)c4)nc4cn[nH]c34)cc2)CC1 [Example 187, 1-(4-(4-((5-(1-methyl-1H-pyrazol-4-yl)-1H-pyrazolo[4,3-d]pyrimidin-7-yl)amino)phenyl)piperazin-1-yl)ethan-1-one]	10 to 100
CC(=O)N1CCC(n2cc(Nc3nc(-c4ccoc4)nc4cn[nH]c34)cn2)CC1 [Example 200, 1-(4-(4-((5-(furan-3-yl)-1H-pyrazolo[4,3-d]pyrimidin-7-yl)amino)-1H-pyrazol-1-yl)piperidin-1-yl)ethan-1-one]	< 10
c1nn(C2CCOCC2)cc1Nc1nc(C2C3CCCCC32)nc2cn[nH]c12 (stereo not shown) [Example 473, 5-(bicyclo[4.1.0]heptan-7-yl)-N-(1-(tetrahydro-2H-pyran-4-yl)-1H-pyrazol-4-yl)-1H-pyrazolo[4,3-d]pyrimidin-7-amine]	100 to 1000
COCCCn1cc(Nc2nc(-c3ccco3)nc3cn[nH]c23)cn1 [Example 215, 5-(furan-2-yl)-N-(1-(3-methoxypropyl)-1H-pyrazol-4-yl)-1H-pyrazolo[4,3-d]pyrimidin-7-amine]	< 10
